We go through one compound from US10830772B2, “Detection method and kit” (The European Union, represented by the European Commission, priority 2015, dated 2020).

The assay has as its system AhR2 from zebrafish. In words: Fluorescence binding of the ligand probe to recombinant AhR protein (excitation 280 nm, emission 450 nm). From the text: The inventors expressed the encoding gene sequence for the AhR2 from zebrafish in Escherichia coli cells to produce the high yield of a 600 amino acid recombinant protein. The protein was purified by using Histidine tag affinity column. The protocol used allowed to obtain a good yield of pure protein that is correctly folded.
The inventors developed an assay for the Aryl Hydrocarbon Receptor binding activity as an alternative to known methods and investigated which molecules are the most suitable for building a competitive binding assay as in vitro ligands, and to make these molecules fluorescent or more fluorescent. […] The same concentration of ethyl 5,11-dihydroindolo[3,2-b]carbazole-6-carboxylate in aqueous buffer environment has a very low fluorescence signal (FIG. 1, bottom line at 328 nm). […] Indeed if ethyl 5,11-dihydroindolo[3,2-b]carbazole-6-carboxylate is a ligand of AhR it moves from an aqueous environment (buffer) to a more hydrophobic environment (hydrophobic internal binding site of the AhR receptor), causing the increase in fluorescence emission at 450 nm.

As to `CCOC(=O)c1c2[nH]c3ccccc3c2cc2[nH]c3ccccc3c12` [ethyl 5,11-dihydroindolo[3,2-b]carbazole-6-carboxylate], for the setting “excited at 280 nm, buffer environment, FIG. 1”, the “fluorescence emission on addition to the AhR (binding into the active site)” value is “causes the appearance of an emission peak with maximum at 450 nm”. The “binding affinity to AhR” value (result in words, suitability for competitive binding assays) is given as “high enough to allow the competition of other compounds to the receptor, yet not too high”.
